Assay results taken from US4620014A, “2-furylbutyrolactones and methods for using same” (priority 1983, dated 1986).
Like-named read-outs stand apart in the source and are kept apart here.

Legend:
[1] = tested on: spleen lymphocytes of SJL/J mice
Description: The purpose of this assay is to challenge lymphocytes in microcultures with one or more polyclonal mitogens at concentrations that will induce mitogenesis within 72 hours of stimulation.
In the mouse model, spleens are removed from different strains of mice and the spleen cells are teased free and suspended in RPMI-1640 tissue culture medium at a concentration of usually 1×10^7 ml. These cells are dispensed at a concentration of 5.0×10^5 cells per microculture well in a 96 well flat bottom 96 well tissue culture plate. All testing of the compounds of this invention or mitogens are done in replicates of 10. The cells are then treated with PHA, Con-A, specific antigens, or buffer only. If in vitro testing is done, varying concentrations of the compounds of this invention or buffer only are added to the cells as well. After treatment with the mitogens and/or compounds of this invention, the cells are incubated for 72 hours. The response of these cells to mitogens and/or the compounds of this invention is assessed using ^14 C-thymidine labeling on the fourth day at a concentration of 0.01 μCi/well. The labeled cells are harvested using a lymphocyte harvestor and placed onto fibrous paper discs. A scintillation cocktail is added to vials contaning the discs and the results are obtained using a LKB-liquid scintillation counter (Model 1216/Rackbeta II). The data is expressed as a ratio of the cpm of the mitogen stimulated group to the control (non-mitogen) treated group=lymphocyte stimulation index (LSI).
The lymphocyte stimulation assay may be performed directly on spleen cells obtained from various strains of mice not treated with the compounds of this invention or on lymphocytes obtained from […]. […] Alternatively, the mice may be treated in vivo with the compounds of this invention by intraperitoneal multi-dose schedules, followed by sacrifice and harvesting spleen lymphocytes. These cells are then tested for their response to polyclonal mitogens or specific antigens used to immunize the mice. In this sytem however, no additional compound is added to the in vitro lymphocyte stimulation assay system.
Three month old mice of the SJL/J strain, which are T-cell deficient, are treated with i.p. administration of 100, 200, or 400 mg/kg of Cpd. 1 or just buffer for four days. This is followed by a lymphocyte stimulation assay.
An in vivo lymphocyte stimulation assay was performed on SJL/J mice of different ages, either 2, 5, or 10 months. The mice received i.p. injections of either 100 mg/kg of Cpd. 1 or just buffer.

[2] = tested on: spleen lymphocytes of KLH-immunized C57BL/6 mice; settings: for Lymphocyte Stimulation Index, Con-A / Lymphocyte Stimulation Index, Control (no mitogen) / Lymphocyte Stimulation Index, PHA: day 17
Text: The effect of the compounds of this invention on the immune response to specific antigens involves immunization of mice with specific anitgens such as bovine serum albumin (BSA) or keyhole limpet hemocyanin (KLH). Following immunization, it is possible to assess the cell-mediated or humoral (antibody) immune response to these antigens by various methods:
(1) Lymphocyte stimulation assays can be performed using varying concentrations of the specific antigens as mitogens in the lymphocyte stimulation microculture system described above. The only difference is that the incubation period is extended to five days instead of three as for the polyclonal mitogens.
Mice of the C57BL/6 strain are given i.p. injections of either 50, 100, 200 or 400 mg/kg of Cpd. 1 or buffer for ten days (days 1-10). An antigen, keyhole limpet hemocyanin (KLH), is administered intraperitoneally with Freund's Complete Adjuvant (FCA) on days 1, 7, and 13. Blood samples are taken for assay of the antibody response on days 0, 5, 12, and 17. Spleens are removed, lymphocytes isolated and a lymphocyte stimulation assay with PHA, Con-A or KLH antigen as the mitogens is performed on day 17 of the experiment.

L-1210 leukemia = assay: Anti-cancer study, L-1210 leukemia in BDF1 mice; assay type: in vivo, mouse; settings: seven days
Text: Mice of the BDF1 strain are given an i.p. inoculation of 10^6 L-1210 leukemia cells on day 0. Twenty-four hours later, groups of 7 mice each are started on a […] treatment regimen of various doses of the compounds of this invention. The experiment is continued according to the guidelines provided under the National Cancer Institute protocol for screening new anti-cancer agents and T/C ratios (median or mean survival time of treated groups over median or mean survival time of controls) are calculated. A T/C value ≥1.25 (or 125%) is considered significant anticancer activity.
(§1) Mice of the BDF1 strain, inoculated with L-1210 leukemia cells, are treated for seven days with either 25, 50, 100, 200 or 400 mg/kg of Cpd. 1 or just buffer. The National Cancer Institute protocol for screening new anti-cancer agents is followed and T/C ratios are calculated.
as §1, with “either 100” for “either 25, 50, 100, 200 or 400”, “Cpd. 1, 20 mg/kg of 5-fluorouracil (5-FU), a known anti-cancer agent,” for “Cpd. 1”

[3] = 100 mg/kg i.p., four days, three month old mice
[4] = 200 mg/kg i.p., four days, three month old mice
[5] = 400 mg/kg i.p., four days, three month old mice

Structure (SMILES): Cc1ccc(C2(O)C(=O)OC3C(O)COC32O)o1.Cc1ccc(C2(O)C(=O)OC3C(O)COC32O)o1.O=C1CCC(=O)O1 (centres unmarked) [Cpd. 1]
- Lymphocyte Stimulation Index, Con-A ([1]; 100 mg/kg i.p., age 2 months): 167
- Lymphocyte Stimulation Index, Control (no mitogen) ([1]; 100 mg/kg i.p., age 2 months): 2.3
- Lymphocyte Stimulation Index, PHA ([1]; 100 mg/kg i.p., age 2 months): 32.6
- Lymphocyte Stimulation Index, Con-A ([1]; 100 mg/kg i.p., age 5 months): 12.9
- Lymphocyte Stimulation Index, Control (no mitogen) ([1]; 100 mg/kg i.p., age 5 months): 1.9
- Lymphocyte Stimulation Index, PHA ([1]; 100 mg/kg i.p., age 5 months): 1.16
- Lymphocyte Stimulation Index, Con-A ([1]; 100 mg/kg i.p., age 10 months): 14.5
- Lymphocyte Stimulation Index, Control (no mitogen) ([1]; 100 mg/kg i.p., age 10 months): 2.1
- Lymphocyte Stimulation Index, PHA ([1]; 100 mg/kg i.p., age 10 months): 9.18
- Lymphocyte Stimulation Index, Con-A [1, 3]: 5.01
- Lymphocyte Stimulation Index, Control (no mitogen) [1, 3]: 0.573
- Lymphocyte Stimulation Index, PHA [1, 3]: 1.85
- Con-A response ([1]; 100 mg/kg, 2 months of age): increased
- PHA response ([1]; 100 mg/kg, 2 months of age): decreased
- mitogenesis response to PHA and Con-A ([1]; 100 mg/kg, 5 months of age): depressed mitogenesis response
- PHA and Con-A mitogenic response ([1]; 100 mg/kg, ten month old): significant stimulation
- Lymphocyte Stimulation Index, Con-A [1, 4]: 4.57
- Lymphocyte Stimulation Index, Control (no mitogen) [1, 4]: 0.732
- Lymphocyte Stimulation Index, PHA [1, 4]: 1.79
- Lymphocyte Stimulation Index, Con-A [1, 5]: 3.30
- Lymphocyte Stimulation Index, Control (no mitogen) [1, 5]: 0.693
- Lymphocyte Stimulation Index, PHA [1, 5]: 2.31
- Lymphocyte Stimulation Index, Con-A ([2]; 50 mg/kg i.p.): 19.0
- Lymphocyte Stimulation Index, Control (no mitogen) ([2]; 50 mg/kg i.p.): 0.976
- Lymphocyte Stimulation Index, PHA ([2]; 50 mg/kg i.p.): 7.65
- Lymphocyte Stimulation Index, KLH ([2]; 50 mg/kg i.p., day 17, KLH 0.025 μg/well): 0.0386
- Lymphocyte Stimulation Index, KLH ([2]; 50 mg/kg i.p., day 17, KLH 0.5 μg/well (first 0.5 column)): 0.415
- Lymphocyte Stimulation Index, KLH ([2]; 50 mg/kg i.p., day 17, KLH 0.5 μg/well (second 0.5 column)): 0.357
- Lymphocyte Stimulation Index, KLH ([2]; 50 mg/kg i.p., day 17, KLH 1.0 μg/well): 0.536
- Lymphocyte Stimulation Index, Con-A ([2]; 100 mg/kg i.p.): 15.6
- Lymphocyte Stimulation Index, Control (no mitogen) ([2]; 100 mg/kg i.p.): 0.961
- Lymphocyte Stimulation Index, PHA ([2]; 100 mg/kg i.p.): 9.12
- Lymphocyte Stimulation Index, KLH ([2]; 100 mg/kg i.p., day 17, KLH 0.025 μg/well): 0.401
- Lymphocyte Stimulation Index, KLH ([2]; 100 mg/kg i.p., day 17, KLH 0.5 μg/well (first 0.5 column)): 0.734
- Lymphocyte Stimulation Index, KLH ([2]; 100 mg/kg i.p., day 17, KLH 0.5 μg/well (second 0.5 column)): 0.526
- Lymphocyte Stimulation Index, KLH ([2]; 100 mg/kg i.p., day 17, KLH 1.0 μg/well): 0.898
- Lymphocyte Stimulation Index, Con-A ([2]; 200 mg/kg i.p.): 51.7
- Lymphocyte Stimulation Index, Control (no mitogen) ([2]; 200 mg/kg i.p.): 1.73
- Lymphocyte Stimulation Index, PHA ([2]; 200 mg/kg i.p.): 12.4
- Lymphocyte Stimulation Index, KLH ([2]; 200 mg/kg i.p., day 17, KLH 0.025 μg/well): 3.91
- Lymphocyte Stimulation Index, KLH ([2]; 200 mg/kg i.p., day 17, KLH 0.5 μg/well (first 0.5 column)): 4.26
- Lymphocyte Stimulation Index, KLH ([2]; 200 mg/kg i.p., day 17, KLH 0.5 μg/well (second 0.5 column)): 1.02
- Lymphocyte Stimulation Index, KLH ([2]; 200 mg/kg i.p., day 17, KLH 1.0 μg/well): 7.45
- lymphocyte DNA synthesis ([2]; 200 mg/kg, day 17, Con-A or KLH): statistically significant increase in lymphocyte DNA synthesis
- Lymphocyte Stimulation Index, Con-A ([2]; 400 mg/kg i.p.): 35.5
- Lymphocyte Stimulation Index, Control (no mitogen) ([2]; 400 mg/kg i.p.): 0.840
- Lymphocyte Stimulation Index, PHA ([2]; 400 mg/kg i.p.): 2.32
- Lymphocyte Stimulation Index, KLH ([2]; 400 mg/kg i.p., day 17, KLH 0.025 μg/well): 1.03
- Lymphocyte Stimulation Index, KLH ([2]; 400 mg/kg i.p., day 17, KLH 0.5 μg/well (first 0.5 column)): 0.232
- Lymphocyte Stimulation Index, KLH ([2]; 400 mg/kg i.p., day 17, KLH 0.5 μg/well (second 0.5 column)): 0.667
- Lymphocyte Stimulation Index, KLH ([2]; 400 mg/kg i.p., day 17, KLH 1.0 μg/well): 0.589
- Median Survival Time (L-1210 leukemia; 25 mg/kg): 20 days
- Median Survival Time (L-1210 leukemia; 50 mg/kg): 21 days
- Median Survival Time (L-1210 leukemia; 100 mg/kg): 30 days
- Median Survival Time (L-1210 leukemia; 200 mg/kg): 30 days
- Median Survival Time (L-1210 leukemia; 400 mg/kg): 25 days
